Laboratory results taken from patent US20250098678A1, “METHOD OF CONTROLLING FUNGI” (UPL CORPORATION LIMITED, priority 2022, published 2025).

Tests used:
Plasmopara halstedii = assay: Anti-fungal activity of treated sunflower seeds against Plasmopara halstedii (seed treatment, % incidence); format: in vivo; details: for % Incidence: sunflower seed treatment, 12 DAS, inoculated with P. halstedii
Method: Example 1: Evaluation of Anti-Fungal Activity of Sunflower Seeds Treated with Cyazofamid Against Plasmopara halstedii One tray for each treatment was filled with perlite that was covered with two layers of watered paper. Treated seeds were placed between the layers under sterile conditions and incubated at 22° C. to 24° C., 100% relative humidity (RH) for 48 h. Zoosporangia from cotyledons of sunflower plants previously infected by an isolate of P. halstedii were removed with deionized water. The suspension was filtered through two layers of sterile cheesecloth and the inoculum concentration was adjusted to 2×10^5 zoosporangia/ml. Treated and germinated seeds were immersed in the zoosporangial suspension for 5 hours. Bioassays were then designed and conducted under controlled growth conditions. Five pots per treatment were filled with perlite and nine sunflower seeds were sown in each pot. Plants were grown at 19° C., 70-100% relative humidity and a 10 h dark/14 h light photoperiod for 12 days. The seed arrangement was made as 50 seeds/plot (pot10×10 cm). The treatments used are depicted below. [table] The % incidence of fungal disease caused by Plasmapora halstedii was observed 12 DAS (days after sowing seeds).

Pythium ultimum = assay: Anti-fungal activity of treated seeds against Pythium ultimum (field trials, patch score); format: in vivo; details: for P. ultimum patch score: seed treatment, field trial
Source text: Example 2: Evaluation of Anti-Fungal Activity of Maize Seeds Treated with Cyazofamid Against Pythium ultimum The present inventors have determined the % pathogen control of Pythium ultimum control in […] treated with cyazofamid in field trials. The treatments employed and the results have been depicted in table 3 below. [table]

| Structure (SMILES) | % Incidence (Plasmopara halstedii; application rate 50 g/100/kg) [%] | % Incidence (Plasmopara halstedii; application rate 100 g/100/kg) [%] | P. ultimum patch score indicating the severity of the fungal disease (Pythium ultimum; compared to the untreated control, result in words) | P. ultimum patch score (Pythium ultimum; 10 g.ai/100 kg, 25 ml/100 kg seeds) [b] | P. ultimum patch score (Pythium ultimum; 20 g.ai/100 kg, 50 ml/100 kg seeds) [b] | P. ultimum patch score (Pythium ultimum; 30 g.ai/100 kg, 75 ml/100 kg seeds) [b] | P. ultimum patch score (Pythium ultimum; 50 g.ai/100 kg, 125 ml/100 kg seeds) [b] | P. ultimum patch score (Pythium ultimum; 100 g.ai/100 kg, 250 ml/100 kg seeds) [b] | % Incidence (Plasmopara halstedii; application rate 35 g/100/kg) [%] | % Incidence (Plasmopara halstedii; application rate 60 g/100/kg) [%] | occurrence of fungal disease (Plasmopara halstedii; treated sunflower seeds, result in words) |
| --- | --- | --- | --- | --- | --- | --- | --- | --- | --- | --- | --- |
| Cc1ccc(-c2c(Cl)nc(C#N)n2S(=O)(=O)N(C)C)cc1 [Cyazofamid, 4-chloro-2-cyano-N,N-dimethyl-5-p-tolylimidazole-1-sulfonamide] | 0 | 0 | significantly low | 1.5 | 1.5 | 1.5 | 1.5 | 1.3 | – | – | – |
| COCC(=O)N(c1c(C)cccc1C)C(C)C(=O)OC (centres unmarked) [Metalaxyl] | – | – | – | – | – | – | – | – | 53.49 | 62.24 | high |
